The supplement of paper PMC11208160

assay: recombinant UMI read abundance after kanamycin selection (control-corrected) (log10(CPM+1)); higher = more efficient recombination; extreme values may be limits of the assay; sequences stand for … in AGTGCAGAGAAAATCGGCCAGTTTTCTCTGCCTGCAGTCCGCATGCCGTGGGACCCCTTGGGTTCTAACCTGTTGCCTAGATTTATGCAGCGGACTGCCTTTCTCCCAAAGTGATAAACCGG…AGGTTGGTTTCACT; site = the 11-nt donor
Experimental: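 Pooled E. coli donor-specificity screen for the IS621 bridge recombinase. Each library member carries a reprogrammed 11-nt donor and a full-length LE bridge RNA expressed in cis from the natural promoter, with a paired donor-binding loop (8-nt LDG + 4-nt RDG) and a target-binding loop fixed to T5. It is co-electroporated with a T5 target plasmid; recombinase is induced with 0.07 mM IPTG and recombinants are selected on kanamycin. UMIs are counted as CPM, averaged over two biological replicates and corrected by the unselected control. Molecule = full bridge RNA written as DNA, built from the T5 scaffold: LDG = donor specificity nt 1-8, RDG = reverse complement of nt 8-11.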
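Note: IS621 bridge recombinase in Escherichia coli cells against a fixed T5 target plasmid.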

Going from “AAGTGTACATGGACCGGTTTTCCCGGTAATCCGTATTTGTG (site AAGTGTACTCA)” to “AATAAACCATGGACCGGTTTTCCCGGTAATCCGTATTTGCC (site AATAAACCTGG)”, the “recombinant UMI read abundance (log10)” value falls from 0.962 to 0.

First: AATAAACCATGGACCGGTTTTCCCGGTAATCCGTATTTGTG (site AATAAACCTCA)
Second: AATAATTCATGGACCGGTTTTCCCGGTAATCCGTATTTGAT (site AATAATTCTAT)
The “recombinant UMI read abundance (log10)” value of the first is lower: 0.00291 for the first, 0.955 for the second.

Compared with “AATAGCACATGGACCGGTTTTCCCGGTAATCCGTATTTGGC (site AATAGCACTGC)”, “AATATGTCATGGACCGGTTTTCCCGGTAATCCGTATTTGAC (site AATATGTCTGT)” is lower in “recombinant UMI read abundance (log10)” value: 2.04 for the first, 0.953 for the second.

“AATATGTCATGGACCGGTTTTCCCGGTAATCCGTATTTGAC (site AATCTGTCTGT)” and “AATATGTCATGGACCGGTTTTCCCGGTAATCCGTATTTGAC (site AATGTGTCTGT)” are the same in “recombinant UMI read abundance (log10)” value: 0 for the first, 0 for the second.

First: AATATGTCATGGACCGGTTTTCCCGGTAATCCGTATTTGAC (site AATTTGTCTGT)
Second: AATCCCACATGGACCGGTTTTCCCGGTAATCCGTATTTGCT (site AATCCCACTAG)
The “recombinant UMI read abundance (log10)” value of the first is lower: 0 for the first, 1.77 for the second.

“AATCCTCCATGGACCGGTTTTCCCGGTAATCCGTATTTGAT (site AATCCTCCTAT)” and “AATCGAGCATGGACCGGTTTTCCCGGTAATCCGTATTTGGA (site AATCGAGCTTC)” are within 0.2 log units of each other in “recombinant UMI read abundance (log10)” value: 0.344 for the first, 0.474 for the second.

“AATCTAACATGGACCGGTTTTCCCGGTAATCCGTATTTGCT (site AATATAACTAG)” and “AATCTAACATGGACCGGTTTTCCCGGTAATCCGTATTTGCT (site AATCTAACTAG)” are the same in “recombinant UMI read abundance (log10)” value: 0 for the first, 0 for the second.

Going from “AATCTAACATGGACCGGTTTTCCCGGTAATCCGTATTTGCT (site AATGTAACTAG)” to “AATCTAACATGGACCGGTTTTCCCGGTAATCCGTATTTGCT (site AATTTAACTAG)”, the “recombinant UMI read abundance (log10)” value falls from 0.245 to 0.

“AATCTGTCATGGACCGGTTTTCCCGGTAATCCGTATTTGAC (site AATATGTCTGT)” and “AATCTGTCATGGACCGGTTTTCCCGGTAATCCGTATTTGAC (site AATCTGTCTGT)” are the same in “recombinant UMI read abundance (log10)” value: 0 for the first, 0 for the second.

“AATCTGTCATGGACCGGTTTTCCCGGTAATCCGTATTTGAC (site AATGTGTCTGT)” and “AATCTGTCATGGACCGGTTTTCCCGGTAATCCGTATTTGAC (site AATTTGTCTGT)” are within 0.2 log units of each other in “recombinant UMI read abundance (log10)” value: 0.00511 for the first, 0 for the second.

Going from “AATGAAACATGGACCGGTTTTCCCGGTAATCCGTATTTGCT (site AATGAAACTAG)” to “AATGAAACATGGACCGGTTTTCCCGGTAATCCGTATTTGCT (site AATGCAACTAG)”, the “recombinant UMI read abundance (log10)” value falls from 1.94 to 0.479.

Compared with “AATGAAACATGGACCGGTTTTCCCGGTAATCCGTATTTGCT (site AATGGAACTAG)”, “AATGAAACATGGACCGGTTTTCCCGGTAATCCGTATTTGCT (site AATGTAACTAG)” is higher in “recombinant UMI read abundance (log10)” value: 0 for the first, 1.65 for the second.

“AATGAAGCATGGACCGGTTTTCCCGGTAATCCGTATTTGTC (site AATGAAGCTGA)” and “AATGGATCATGGACCGGTTTTCCCGGTAATCCGTATTTGAC (site AATGGATCTGT)” are within 0.2 log units of each other in “recombinant UMI read abundance (log10)” value: 2.09 for the first, 2.04 for the second.

Compared with “AATGTAACATGGACCGGTTTTCCCGGTAATCCGTATTTGCT (site AAAGTAACTAG)”, “AATGTAACATGGACCGGTTTTCCCGGTAATCCGTATTTGCT (site AACGTAACTAG)” is higher in “recombinant UMI read abundance (log10)” value: 1.76 for the first, 2.22 for the second.

First: AATGTAACATGGACCGGTTTTCCCGGTAATCCGTATTTGCT (site AAGGTAACTAG)
Second: AATGTAACATGGACCGGTTTTCCCGGTAATCCGTATTTGCT (site AATATAACTAG)
The “recombinant UMI read abundance (log10)” value of the first is lower: 1.84 for the first, 2.07 for the second.

Compared with “AATGTAACATGGACCGGTTTTCCCGGTAATCCGTATTTGCT (site AATCTAACTAG)”, “AATGTAACATGGACCGGTTTTCCCGGTAATCCGTATTTGCT (site AATGAAACTAG)” is lower in “recombinant UMI read abundance (log10)” value: 0.276 for the first, 0.0158 for the second.

Compared with “AATGTAACATGGACCGGTTTTCCCGGTAATCCGTATTTGCT (site AATGCAACTAG)”, “AATGTAACATGGACCGGTTTTCCCGGTAATCCGTATTTGCT (site AATGGAACTAG)” is lower in “recombinant UMI read abundance (log10)” value: 0.239 for the first, 0 for the second.

“AATGTAACATGGACCGGTTTTCCCGGTAATCCGTATTTGCT (site AATGTAACTAA)” and “AATGTAACATGGACCGGTTTTCCCGGTAATCCGTATTTGCT (site AATGTAACTAC)” are within 0.2 log units of each other in “recombinant UMI read abundance (log10)” value: 0.0161 for the first, 0.00758 for the second.

Going from “AATGTAACATGGACCGGTTTTCCCGGTAATCCGTATTTGCT (site AATGTAACTAG)” to “AATGTAACATGGACCGGTTTTCCCGGTAATCCGTATTTGCT (site AATGTAACTAT)”, the “recombinant UMI read abundance (log10)” value falls from 2.26 to 0.0618.

Going from “AATGTAACATGGACCGGTTTTCCCGGTAATCCGTATTTGCT (site AATGTAACTCG)” to “AATGTAACATGGACCGGTTTTCCCGGTAATCCGTATTTGCT (site AATGTAACTGG)”, the “recombinant UMI read abundance (log10)” value rises from 0.0789 to 1.14.

“AATGTAACATGGACCGGTTTTCCCGGTAATCCGTATTTGCT (site AATGTAACTTG)” and “AATGTAACATGGACCGGTTTTCCCGGTAATCCGTATTTGCT (site AATGTACCTAG)” are within 0.2 log units of each other in “recombinant UMI read abundance (log10)” value: 0.00409 for the first, 0 for the second.

First: AATGTAACATGGACCGGTTTTCCCGGTAATCCGTATTTGCT (site AATGTAGCTAG)
Second: AATGTAACATGGACCGGTTTTCCCGGTAATCCGTATTTGCT (site AATGTATCTAG)
The “recombinant UMI read abundance (log10)” value of the first is lower: 0.332 for the first, 1.67 for the second.

First: AATGTAACATGGACCGGTTTTCCCGGTAATCCGTATTTGCT (site AATGTCACTAG)
Second: AATGTAACATGGACCGGTTTTCCCGGTAATCCGTATTTGCT (site AATGTGACTAG)
The “recombinant UMI read abundance (log10)” value of the first is lower: 0.198 for the first, 0.422 for the second.

First: AATGTAACATGGACCGGTTTTCCCGGTAATCCGTATTTGCT (site AATGTTACTAG)
Second: AATGTAACATGGACCGGTTTTCCCGGTAATCCGTATTTGCT (site AATTTAACTAG)
The “recombinant UMI read abundance (log10)” value of the first is higher: 1.14 for the first, 0.682 for the second.

Compared with “AATGTAACATGGACCGGTTTTCCCGGTAATCCGTATTTGCT (site ACTGTAACTAG)”, “AATGTAACATGGACCGGTTTTCCCGGTAATCCGTATTTGCT (site AGTGTAACTAG)” is lower in “recombinant UMI read abundance (log10)” value: 1.84 for the first, 1.51 for the second.

First: AATGTAACATGGACCGGTTTTCCCGGTAATCCGTATTTGCT (site ATTGTAACTAG)
Second: AATGTAACATGGACCGGTTTTCCCGGTAATCCGTATTTGCT (site CATGTAACTAG)
The “recombinant UMI read abundance (log10)” value of the first is lower: 2.07 for the first, 2.37 for the second.
